Experimental data reported in US12630600B2 (MEDIMMUNE LIMITED, priority 2022, dated 2026).
Read-outs that look alike come from different tables or passages of the source. Blank lines part the entries; values can stand above or below the compound they belong to. Starred links: 1 amine or outer side, 2 acyl side, 3 side chain; linkers in the order of their positions; H or OH if unused. Non-standard residues stand in square brackets, D forms with d. Residues, ends and D or L forms follow the SMILES beside them. Groups on a side chain read outwards from the residue. *: point of attachment. C20 diacid = O=C(O)CCCCCCCCCCCCCCCCCCC(=O)*; C18 diacid = O=C(O)CCCCCCCCCCCCCCCCC(=O)*; Dip = N[C@H](C(=O)O)C(c1ccccc1)c1ccccc1; γGlu = O=C(O)[C@H](CCC(=O)[*:2])N[*:1]; X3 = O=C(CN(Cc1c[nH]cn1)[*:1])[*:2]; Palmitoyl = CCCCCCCCCCCCCCCC(=O)*; αMeF = C[C@](N)(Cc1ccccc1)C(=O)O; PEG2 = NCCOCCOCCC(=O)O; AEEA = NCCOCCOCC(=O)O; Aib = CC(C)(N)C(=O)O

What was measured:
neprilysin = target: T1, neprilysin (Homo sapiens, UniProt P08473); assay: Proteolytic resistance to neprilysin; assay type: in vitro ADME; details: pH 8.3
T1 construct: purchased R&D Systems 1182-ZNC-010
T1 sequence (P08473 whole entry): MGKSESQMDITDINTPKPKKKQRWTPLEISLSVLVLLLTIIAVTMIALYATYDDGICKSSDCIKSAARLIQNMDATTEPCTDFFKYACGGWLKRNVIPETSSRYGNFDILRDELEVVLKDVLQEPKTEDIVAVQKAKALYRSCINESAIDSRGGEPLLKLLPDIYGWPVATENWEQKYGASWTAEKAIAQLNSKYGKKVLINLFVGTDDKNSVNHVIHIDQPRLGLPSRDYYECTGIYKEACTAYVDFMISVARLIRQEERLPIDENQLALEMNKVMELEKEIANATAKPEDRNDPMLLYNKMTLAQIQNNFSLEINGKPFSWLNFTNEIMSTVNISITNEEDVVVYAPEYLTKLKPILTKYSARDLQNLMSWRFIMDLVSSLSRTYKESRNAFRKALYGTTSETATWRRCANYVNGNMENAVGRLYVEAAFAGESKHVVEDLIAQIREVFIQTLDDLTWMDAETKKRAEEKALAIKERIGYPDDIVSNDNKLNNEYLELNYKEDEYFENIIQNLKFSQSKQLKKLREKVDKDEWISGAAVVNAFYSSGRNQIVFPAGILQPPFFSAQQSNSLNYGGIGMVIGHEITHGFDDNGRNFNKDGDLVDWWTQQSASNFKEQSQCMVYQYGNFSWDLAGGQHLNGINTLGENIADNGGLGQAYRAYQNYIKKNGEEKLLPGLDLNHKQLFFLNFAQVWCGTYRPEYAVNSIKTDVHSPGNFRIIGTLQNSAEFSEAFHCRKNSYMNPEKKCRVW
Procedure: 10.0 μg (˜10 units) recombinant Neprilysin (R&D Systems: 1182-ZNC-010) was reconstituted to 100 μL (100 μg/mL, ˜100 units/mL) in assay buffer (50 mM Tris, 50 mM NaCl, 50 mM NaHCO3, adjusted to pH 8.3) to give the enzyme stock solution. Peptide stock solutions were prepared to a concentration of ˜250 μM (˜1.0 mg/mL of 4 kDa peptide) in assay buffer. 100 μL (10 μg, ˜10 units) of neprilysin stock solution was added to 100 μL of peptide stock solution (1.0 mg/mL, ˜100 μg of peptide) and the mixture was co-incubated in a temperature regulated incubator at 37° C. for the duration of the experiment. 25 μL aliquots (˜12.5 μg initial peptide) of the peptide-enzyme mixture were periodically withdrawn (t=0, 30 mins, 1 h, 2 h, 4 h and 24 h) and quenched immediately by addition to an equal volume ([…]) of 10% TFA (v/v) in 1:1 water/acetonitrile to arrest proteolytic activity. The quenched aliquot centrifuged at 7800 rpm, and 30 μL of the supernatant was analyzed by analytical RP-HPLC as follows: Analytical RP-HPLC method: Agilent Polaris C8-A column (4.6×100 mm, 3 micron) eluted with a linear binary gradient of 10-90% MeCN (0.1% TFA v/v) in water (0.1% TFA v/v) over either 10 or 15 mins at 1.5 mL min^−1 at 40° C. with detection by UV absorption at 210 nm. Manual integration (AUC) allowed estimation of remaining intact peptide over the time course of the experiment.

[1] = target: T2, human GLP-1 receptor (hGLP-1R) (Homo sapiens, UniProt P43220); assay: cAMP production (HTRF) in CHO cells expressing human GLP-1 receptor; assay type: cell-based; details: for EC50: geometric mean, cAMP, read-out: hGLP-1R EC50; for % Relative Potency Ratio: % GLP-1R activity relative to GLP-1 / % GlucR activity relative to glucagon
T2 construct: expressed in transfected cells; host or cells: CHO
T2 sequence (P43220 24-463): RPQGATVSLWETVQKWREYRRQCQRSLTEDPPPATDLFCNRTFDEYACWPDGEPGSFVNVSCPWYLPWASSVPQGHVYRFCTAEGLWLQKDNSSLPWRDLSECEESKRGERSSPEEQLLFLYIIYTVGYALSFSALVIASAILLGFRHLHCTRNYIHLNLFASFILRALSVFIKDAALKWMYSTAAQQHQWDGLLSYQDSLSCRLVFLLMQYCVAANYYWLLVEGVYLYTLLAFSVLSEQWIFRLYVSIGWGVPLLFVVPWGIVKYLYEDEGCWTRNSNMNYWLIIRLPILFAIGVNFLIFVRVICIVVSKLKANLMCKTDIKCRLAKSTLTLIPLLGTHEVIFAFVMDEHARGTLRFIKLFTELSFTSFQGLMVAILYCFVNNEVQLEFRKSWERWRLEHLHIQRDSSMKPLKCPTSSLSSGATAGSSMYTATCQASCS

[2] = target: T3, human glucagon receptor (hGCGR) (Homo sapiens, UniProt P47871); assay: cAMP production (HTRF) in CHO cells expressing human glucagon receptor; assay type: cell-based; details: read-out: hGluc-R EC50
T3 construct: expressed in transfected cells; host or cells: CHO
T3 sequence (P47871 26-477): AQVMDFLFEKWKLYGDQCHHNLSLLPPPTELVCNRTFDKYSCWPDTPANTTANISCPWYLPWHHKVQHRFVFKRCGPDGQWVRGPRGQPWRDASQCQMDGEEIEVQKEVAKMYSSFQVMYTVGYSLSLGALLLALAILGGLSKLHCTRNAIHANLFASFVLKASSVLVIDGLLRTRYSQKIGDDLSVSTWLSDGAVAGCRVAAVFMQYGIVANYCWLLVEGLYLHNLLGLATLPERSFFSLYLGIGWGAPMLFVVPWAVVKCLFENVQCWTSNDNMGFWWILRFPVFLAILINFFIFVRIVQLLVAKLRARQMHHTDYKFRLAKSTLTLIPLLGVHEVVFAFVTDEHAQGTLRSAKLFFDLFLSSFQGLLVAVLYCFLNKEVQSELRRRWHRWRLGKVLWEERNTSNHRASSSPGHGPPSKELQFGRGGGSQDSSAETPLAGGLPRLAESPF

SMILES: CC[C@H](C)[C@H](NC(=O)C(C)(C)NC(=O)[C@H](CCC(N)=O)NC(=O)[C@@H](NC(=O)[C@H](Cc1ccccc1)NC(=O)[C@H](CC(=O)O)NC(=O)[C@H](CCCCNC(=O)COCCOCCNC(=O)COCCOCCNC(=O)CC[C@H](NC(=O)CCCCCCCCCCCCCCCCC(=O)O)C(=O)O)NC(=O)[C@H](C)NC(=O)[C@H](C)NC(=O)[C@H](CCCNC(=N)N)NC(=O)[C@H](CO)NC(=O)[C@H](CC(=O)O)NC(=O)[C@H](CC(C)C)NC(=O)[C@](C)(Cc1ccccc1)NC(=O)[C@H](CCCCN)NC(=O)[C@H](CO)NC(=O)[C@@H](NC(=O)[C@H](CC(=O)O)NC(=O)[C@H](CO)NC(=O)[C@@H](NC(=O)[C@](C)(Cc1ccccc1)NC(=O)[C@H](CO)NC(=O)CNC(=O)[C@H](Cc1c[nH]cn1)NC(=O)C(C)(C)NC(=O)[C@@H](N)Cc1c[nH]cn1)[C@@H](C)O)C(C)C)C(C)C)C(=O)N[C@@H](C)C(=O)N[C@@H](CC(N)=O)C(=O)N[C@H](C(N)=O)[C@@H](C)O [Peptide 287] (H-H[Aib]HGS[αMeF]TSDVSK[αMeF]LDSRAAK([AEEA-AEEA-γGlu-C18 diacid])DFVQ[Aib]IANT-NH2)
- % intact peptide over time, Neprilysin (neprilysin): 100%

SMILES: CC[C@H](C)[C@H](NC(=O)[C@H](Cc1c[nH]c2ccccc12)NC(=O)[C@H](CCCCNC(=O)CC[C@H](NC(=O)CCCCCCCCCCCCCCCCC(=O)O)C(=O)O)NC(=O)[C@@H](NC(=O)[C@H](Cc1ccccc1)NC(=O)[C@H](CC(=O)O)NC(=O)[C@H](CCC(N)=O)NC(=O)[C@H](C)NC(=O)[C@H](C)NC(=O)[C@H](CCCNC(=N)N)NC(=O)[C@H](CO)NC(=O)[C@H](CC(=O)O)NC(=O)[C@H](CC(C)C)NC(=O)[C@@H](NC(=O)[C@H](CCCCN)NC(=O)[C@H](CO)NC(=O)[C@@H](NC(=O)[C@H](CC(=O)O)NC(=O)[C@H](CO)NC(=O)[C@@H](NC(=O)[C@H](Cc1ccccc1)NC(=O)[C@H](CO)NC(=O)CNC(=O)[C@H](CCC(N)=O)NC(=O)C(C)(C)NC(=O)[C@@H](N)Cc1c[nH]cn1)[C@@H](C)O)C(C)C)C(c1ccccc1)c1ccccc1)C(C)C)C(=O)N[C@@H](C)C(=O)N[C@@H](CC(N)=O)C(=O)N[C@H](C(N)=O)[C@@H](C)O [Peptide 343] (H-H[Aib]QGSFTSDVSK[Dip]LDSRAAQDFVK([γGlu-C18 diacid])WIANT-NH2)
- EC50 ([1]; Table 7, modification at position 20, CHO cells expressing hGLP-1R): 0.198 nM
- % Relative Potency Ratio ([1]; Table 7): 196.1
- % Relative Potency Ratio ([1]; Table 8): 4.2
- EC50 ([2]; Table 7, modification at position 20, CHO cells expressing hGCGR, geometric mean): 19.6 nM

SMILES: CCCCCCCCCCCCCCCC(=O)N[C@@H](CCC(=O)NCCOCCOCCC(=O)NCCOCCOCCC(=O)NCCCC[C@H](NC(=O)[C@H](CCCCN)NC(=O)[C@H](CO)NC(=O)[C@@H](NC(=O)[C@H](CC(=O)O)NC(=O)[C@H](CO)NC(=O)[C@@H](NC(=O)[C@](C)(Cc1ccccc1)NC(=O)[C@H](CO)NC(=O)CNC(=O)[C@H](CCC(N)=O)NC(=O)C(C)(C)NC(=O)[C@@H](N)Cc1c[nH]cn1)[C@@H](C)O)C(C)C)C(=O)N[C@@H](CC(C)C)C(=O)N[C@@H](CC(=O)O)C(=O)N[C@@H](CO)C(=O)N[C@@H](CCCNC(=N)N)C(=O)N[C@@H](C)C(=O)N[C@@H](C)C(=O)N[C@@H](CCC(N)=O)C(=O)N[C@@H](CC(=O)O)C(=O)N[C@@](C)(Cc1ccccc1)C(=O)N[C@H](C(=O)N[C@@H](CCC(=O)O)C(=O)N[C@@H](Cc1c[nH]c2ccccc12)C(=O)N[C@H](C(=O)N[C@@H](C)C(=O)N[C@@H](CC(N)=O)C(=O)N[C@H](C(N)=O)[C@@H](C)O)[C@@H](C)CC)C(C)C)C(=O)O [Peptide 401] (H-H[Aib]QGS[αMeF]TSDVSKK([PEG2-PEG2-γGlu-Palmitoyl])LDSRAAQD[αMeF]VEWIANT-NH2)
- % Relative Potency Ratio ([1]; Table 10): 32.3
- EC50 ([2]; Table 10, peptides modified at position 13, geometric mean, CHO cells): 0.00954 nM

The remaining lines, values ahead:

- % intact peptide over time, Neprilysin (neprilysin): 100%
SMILES: CC[C@H](C)[C@H](NC(=O)C(C)(C)NC(=O)[C@H](CCC(N)=O)NC(=O)[C@@H](NC(=O)[C@](C)(Cc1ccccc1)NC(=O)[C@H](CC(=O)O)NC(=O)[C@H](CCCCNC(=O)COCCOCCNC(=O)COCCOCCNC(=O)CC[C@H](NC(=O)CC[C@H](NC(=O)CCCCCCCCCCCCCCCCCCC(=O)O)C(=O)O)C(=O)O)NC(=O)[C@H](C)NC(=O)[C@H](C)NC(=O)[C@H](CCCNC(=N)N)NC(=O)[C@H](CO)NC(=O)[C@H](CC(=O)O)NC(=O)[C@H](CC(C)C)NC(=O)[C@](C)(Cc1ccccc1)NC(=O)[C@H](CCCCN)NC(=O)[C@H](CO)NC(=O)[C@@H](NC(=O)[C@H](CC(=O)O)NC(=O)[C@H](CO)NC(=O)[C@@H](NC(=O)[C@H](Cc1ccccc1)NC(=O)[C@H](CO)NC(=O)CNC(=O)[C@H](Cc1c[nH]cn1)NC(=O)C(C)(C)NC(=O)[C@@H](N)Cc1c[nH]cn1)[C@@H](C)O)C(C)C)C(C)C)C(=O)N[C@@H](C)C(=O)N[C@@H](CC(N)=O)C(=O)N[C@H](C(N)=O)[C@@H](C)O [Peptide 282] (H-H[Aib]HGSFTSDVSK[αMeF]LDSRAAK([AEEA-AEEA-γGlu-γGlu-C20 diacid])D[αMeF]VQ[Aib]IANT-NH2)

- EC50 ([1]; Table 8, peptides modified at position 24, CHO cells): 0.871 nM
- EC50 ([2]; Table 8, peptides modified at position 24, geometric mean, CHO cells): 14.9 nM
SMILES: CC[C@H](C)[C@H](NC(=O)[C@H](Cc1c[nH]c2ccccc12)NC(=O)[C@H](CCCCNC(=O)COCCOCCNC(=O)COCCOCCNC(=O)CC[C@H](NC(=O)CC[C@H](NC(=O)CCCCCCCCCCCCCCCCCCC(=O)O)C(=O)O)C(=O)O)NC(=O)[C@@H](NC(=O)[C@H](Cc1ccccc1)NC(=O)[C@H](CC(=O)O)NC(=O)[C@H](CCC(N)=O)NC(=O)[C@H](C)NC(=O)[C@H](C)NC(=O)[C@H](CCCNC(=N)N)NC(=O)[C@H](CO)NC(=O)[C@H](CC(=O)O)NC(=O)[C@H](CC(C)C)NC(=O)[C@](C)(Cc1ccccc1)NC(=O)[C@H](CCCCN)NC(=O)[C@H](CO)NC(=O)[C@@H](NC(=O)[C@H](CC(=O)O)NC(=O)[C@H](CO)NC(=O)[C@@H](NC(=O)[C@](C)(Cc1ccccc1)NC(=O)[C@H](CO)NC(=O)CNC(=O)[C@H](Cc1c[nH]cn1)NC(=O)[C@H](CO)NC(=O)CNCc1c[nH]cn1)[C@@H](C)O)C(C)C)C(C)C)C(=O)N[C@@H](C)C(=O)N[C@@H](CC(N)=O)C(=O)N[C@H](C(N)=O)[C@@H](C)O [Peptide 380] (H-[X3]SHGS[αMeF]TSDVSK[αMeF]LDSRAAQDFVK([AEEA-AEEA-γGlu-γGlu-C20 diacid])WIANT-NH2; N-terminus assumed)

- EC50 ([1]; Table 6, modification at position 17, CHO cells expressing hGLP-1R): 1.23 nM
- % Relative Potency Ratio ([1]; Table 6): 3.3
- EC50 ([2]; Table 6, modification at position 17, CHO cells expressing hGCGR, geometric mean): 2.06 nM
SMILES: CC[C@H](C)[C@H](NC(=O)[C@@H](NC(=O)C(C)(C)NC(=O)[C@H](CCC(=O)O)NC(=O)[C@@H](NC(=O)[C@](C)(Cc1ccccc1)NC(=O)[C@H](CC(=O)O)NC(=O)[C@H](CCC(N)=O)NC(=O)[C@H](C)NC(=O)[C@H](C)NC(=O)[C@H](CCCCNC(=O)CCOCCOCCNC(=O)CCOCCOCCNC(=O)CC[C@H](NC(=O)CC[C@H](NC(=O)CCCCCCCCCCCCCCCCC(=O)O)C(=O)O)C(=O)O)NC(=O)[C@H](CO)NC(=O)[C@H](CC(=O)O)NC(=O)[C@H](CC(C)C)NC(=O)[C@@H](NC(=O)[C@H](CCCCN)NC(=O)[C@H](CO)NC(=O)[C@@H](NC(=O)[C@H](CC(=O)O)NC(=O)[C@H](CO)NC(=O)[C@@H](NC(=O)[C@](C)(Cc1ccccc1)NC(=O)[C@H](CO)NC(=O)CNC(=O)[C@H](CCC(N)=O)NC(=O)[C@H](CO)NC(=O)[C@@H](N)Cc1c[nH]cn1)[C@@H](C)O)C(C)C)C(c1ccccc1)c1ccccc1)C(C)C)[C@@H](C)CC)C(=O)N[C@@H](CC(N)=O)C(=O)N[C@H](C(N)=O)[C@@H](C)O [Peptide 65] (H-HSQGS[αMeF]TSDVSK[Dip]LDSK([PEG2-PEG2-γGlu-γGlu-C18 diacid])AAQD[αMeF]VE[Aib]IINT-NH2)
